From the NIST ThermoML archive (doi:10.1016/j.jct.2018.11.011)
“And” between values parts separate entries of the source, which are not always exact repeats. Equal values may be shown once. Numbers after ± are expanded uncertainties.

Experiment: molar heat capacity at constant pressure
Conditions: 101.33 kPa

O=C([O][Sb]([c]1ccccc1)([c]1ccccc1)([c]1ccccc1)[c]1ccccc1)c1ccccc1 [tetraphenylantimony benzoate]
Conditions	molar heat capacity at constant pressure
175 K, Crystal, Small (less than 1 g) adiabatic calorimetry	350 ± 1.8 J/K/mol
179.52 K, Crystal, Small (less than 1 g) adiabatic calorimetry	354.2 ± 1.8 J/K/mol
180 K, Crystal, Small (less than 1 g) adiabatic calorimetry	355.4 ± 1.8 J/K/mol
182.77 K, Crystal, Small (less than 1 g) adiabatic calorimetry	359.3 ± 1.8 J/K/mol
187 K, Crystal, Small (less than 1 g) adiabatic calorimetry	368 ± 1.9 J/K/mol
190 K, Crystal, Small (less than 1 g) adiabatic calorimetry	372 ± 1.9 J/K/mol
193.46 K, Crystal, Small (less than 1 g) adiabatic calorimetry	377.4 ± 1.9 J/K/mol
196.73 K, Crystal, Small (less than 1 g) adiabatic calorimetry	382.6 ± 2 J/K/mol
200 K, Crystal, Small (less than 1 g) adiabatic calorimetry	387 ± 2 J/K/mol and 387.6 ± 2 J/K/mol
203.22 K, Crystal, Small (less than 1 g) adiabatic calorimetry	393.1 ± 2 J/K/mol
206.89 K, Crystal, Small (less than 1 g) adiabatic calorimetry	398.7 ± 2.1 J/K/mol
210 K, Crystal, Small (less than 1 g) adiabatic calorimetry	402 ± 2.1 J/K/mol
212.74 K, Crystal, Small (less than 1 g) adiabatic calorimetry	408.9 ± 2.1 J/K/mol
216.41 K, Crystal, Small (less than 1 g) adiabatic calorimetry	416 ± 2.2 J/K/mol
218 K, Crystal, Small (less than 1 g) adiabatic calorimetry	417 ± 2.2 J/K/mol
220 K, Crystal, Small (less than 1 g) adiabatic calorimetry	420.9 ± 2.2 J/K/mol
221.7 K, Crystal, Small (less than 1 g) adiabatic calorimetry	424.2 ± 2.2 J/K/mol
226.59 K, Crystal, Small (less than 1 g) adiabatic calorimetry	431.9 ± 2.2 J/K/mol
230.26 K, Crystal, Small (less than 1 g) adiabatic calorimetry	438 ± 2.2 J/K/mol
233.93 K, Crystal, Small (less than 1 g) adiabatic calorimetry	444.7 ± 2.2 J/K/mol
237.6 K, Crystal, Small (less than 1 g) adiabatic calorimetry	451.8 ± 2.3 J/K/mol
240 K, Crystal, Small (less than 1 g) adiabatic calorimetry	455.1 ± 2.3 J/K/mol
241.26 K, Crystal, Small (less than 1 g) adiabatic calorimetry	457.5 ± 2.3 J/K/mol
244.92 K, Crystal, Small (less than 1 g) adiabatic calorimetry	464.4 ± 2.3 J/K/mol
248.56 K, Crystal, Small (less than 1 g) adiabatic calorimetry	469.4 ± 2.4 J/K/mol
252.2 K, Crystal, Small (less than 1 g) adiabatic calorimetry	476.9 ± 2.4 J/K/mol
255.84 K, Crystal, Small (less than 1 g) adiabatic calorimetry	483.2 ± 2.4 J/K/mol
259.46 K, Crystal, Small (less than 1 g) adiabatic calorimetry	489.4 ± 2.5 J/K/mol
260 K, Crystal, Small (less than 1 g) adiabatic calorimetry	491.6 ± 2.5 J/K/mol
260.21 K, Crystal, Small (less than 1 g) adiabatic calorimetry	492.1 ± 2.5 J/K/mol
263.38 K, Crystal, Small (less than 1 g) adiabatic calorimetry	496.3 ± 2.5 J/K/mol
266.99 K, Crystal, Small (less than 1 g) adiabatic calorimetry	503.4 ± 2.6 J/K/mol
270.59 K, Crystal, Small (less than 1 g) adiabatic calorimetry	511.1 ± 2.6 J/K/mol
273.15 K, Crystal, Small (less than 1 g) adiabatic calorimetry	514.4 ± 2.6 J/K/mol
274.19 K, Crystal, Small (less than 1 g) adiabatic calorimetry	516.9 ± 2.6 J/K/mol
277.77 K, Crystal, Small (less than 1 g) adiabatic calorimetry	523.1 ± 2.7 J/K/mol
280 K, Crystal, Small (less than 1 g) adiabatic calorimetry	527.1 ± 2.7 J/K/mol
281.34 K, Crystal, Small (less than 1 g) adiabatic calorimetry	529.8 ± 2.7 J/K/mol
284.91 K, Crystal, Small (less than 1 g) adiabatic calorimetry	536.8 ± 2.7 J/K/mol
288.45 K, Crystal, Small (less than 1 g) adiabatic calorimetry	544.3 ± 2.7 J/K/mol
291.98 K, Crystal, Small (less than 1 g) adiabatic calorimetry	551.8 ± 2.8 J/K/mol
295.51 K, Crystal, Small (less than 1 g) adiabatic calorimetry	558.6 ± 2.8 J/K/mol
298.15 K, Crystal, Small (less than 1 g) adiabatic calorimetry	564.4 ± 2.8 J/K/mol
299.02 K, Crystal, Small (less than 1 g) adiabatic calorimetry	565.4 ± 2.8 J/K/mol
300 K, Crystal, Small (less than 1 g) adiabatic calorimetry	568.4 ± 2.9 J/K/mol
302.51 K, Crystal, Small (less than 1 g) adiabatic calorimetry	572.4 ± 2.9 J/K/mol
305.98 K, Crystal, Small (less than 1 g) adiabatic calorimetry	579.5 ± 2.9 J/K/mol
309.1 K, Crystal, Small (less than 1 g) adiabatic calorimetry	585.3 ± 3 J/K/mol
312.86 K, Crystal, Small (less than 1 g) adiabatic calorimetry	594.4 ± 3 J/K/mol
316.25 K, Crystal, Small (less than 1 g) adiabatic calorimetry	601.1 ± 3 J/K/mol
319.65 K, Crystal, Small (less than 1 g) adiabatic calorimetry	610.9 ± 3.1 J/K/mol
320 K, Crystal, Small (less than 1 g) adiabatic calorimetry	611.4 ± 3.1 J/K/mol
321.5 K, Crystal, DSC	615 ± 33 J/K/mol
323.03 K, Crystal, Small (less than 1 g) adiabatic calorimetry	617.6 ± 3.1 J/K/mol
324.5 K, Crystal, DSC	621 ± 33 J/K/mol
326.38 K, Crystal, Small (less than 1 g) adiabatic calorimetry	625.6 ± 3.2 J/K/mol
327.5 K, Crystal, DSC	627 ± 33 J/K/mol
329.73 K, Crystal, Small (less than 1 g) adiabatic calorimetry	632 ± 3.2 J/K/mol
330.5 K, Crystal, DSC	634 ± 34 J/K/mol
333.07 K, Crystal, Small (less than 1 g) adiabatic calorimetry	638.8 ± 3.2 J/K/mol
333.5 K, Crystal, DSC	639 ± 34 J/K/mol
336.5 K, Crystal, DSC	645 ± 34 J/K/mol
337.11 K, Crystal, Small (less than 1 g) adiabatic calorimetry	646.4 ± 3.2 J/K/mol
339.5 K, Crystal, DSC	649 ± 35 J/K/mol
340 K, Crystal, Small (less than 1 g) adiabatic calorimetry	650 ± 26 J/K/mol
342.5 K, Crystal, DSC	656 ± 35 J/K/mol
345.5 K, Crystal, DSC	660 ± 35 J/K/mol
348.5 K, Crystal, DSC	666 ± 36 J/K/mol
351.5 K, Crystal, DSC	671 ± 36 J/K/mol
354.5 K, Crystal, DSC	678 ± 37 J/K/mol
357.5 K, Crystal, DSC	683 ± 37 J/K/mol
360 K, Crystal, Small (less than 1 g) adiabatic calorimetry	688 ± 27 J/K/mol
360.5 K, Crystal, DSC	689 ± 37 J/K/mol
368.5 K, Crystal, DSC	709 ± 38 J/K/mol
377.2 K, Crystal, DSC	731 ± 39 J/K/mol
380 K, Crystal, Small (less than 1 g) adiabatic calorimetry	736 ± 30 J/K/mol
387.3 K, Crystal, DSC	755 ± 41 J/K/mol
397.5 K, Crystal, DSC	780 ± 42 J/K/mol
400 K, Crystal, Small (less than 1 g) adiabatic calorimetry	788 ± 32 J/K/mol
402.5 K, Crystal, DSC	793 ± 42 J/K/mol
405.5 K, Crystal, DSC	800 ± 42 J/K/mol
408.5 K, Crystal, DSC	806 ± 43 J/K/mol
411.5 K, Crystal, DSC	830 ± 47 J/K/mol
420 K, Crystal, Small (less than 1 g) adiabatic calorimetry	800 ± 33 J/K/mol
437.5 K, Crystal, Small (less than 1 g) adiabatic calorimetry	873 ± 33 J/K/mol
437.5 K, Liquid, DSC	973 ± 50 J/K/mol
440 K, Liquid, DSC	973 ± 50 J/K/mol
445.5 K, Liquid, DSC	989 ± 50 J/K/mol
447.5 K, Liquid, DSC	981 ± 50 J/K/mol
450.5 K, Liquid, DSC	973 ± 50 J/K/mol
453.5 K, Liquid, DSC	973 ± 50 J/K/mol
456.5 K, Liquid, DSC	973 ± 50 J/K/mol
459.5 K, Liquid, DSC	973 ± 50 J/K/mol
460 K, Liquid, DSC	973 ± 50 J/K/mol
462.5 K, Liquid, DSC	973 ± 50 J/K/mol
465.5 K, Liquid, DSC	973 ± 50 J/K/mol
468.5 K, Liquid, DSC	973 ± 50 J/K/mol
471.5 K, Liquid, DSC	973 ± 50 J/K/mol
474.5 K, Liquid, DSC	973 ± 50 J/K/mol
477.5 K, Liquid, DSC	973 ± 50 J/K/mol
480 K, Liquid, DSC	973 ± 50 J/K/mol
480.5 K, Liquid, DSC	973 ± 50 J/K/mol
